“And” between values parts separate entries of the source, which are not always exact repeats. Identical values can stand only once. Inconclusive results and toxic doses are left out. The calls were made as follows: active = survival T/C of 150% or more; inactive = T/C below 125% in these data.
System: CD2F1 mice, L1210 leukemia ip, survival T/C
Assay: NCI In Vivo Anticancer Drug Screen. Data for tumor model L1210 Leukemia (intraperitoneal) in CD2F1 (CDF1) mice
Settings: higher = longer survival
Summary of the method: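 Compound-dosed mice with transplantable tumor versus matched vehicle controls; endpoint ratio T/C reported.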

[1] = endpoint: mean survival time, dose: 50.0 mg/kg/injection, schedule: Q01DX009 (ip), vehicle: saline with Tween-80
[2] = endpoint: mean survival time, dose: 100.0 mg/kg/injection, schedule: Q01DX009 (ip), vehicle: saline with Tween-80
[3] = endpoint: mean survival time, dose: 200.0 mg/kg/injection, schedule: Q01DX009 (ip), vehicle: saline with Tween-80
[4] = endpoint: mean survival time, dose: 100.0 mg/kg/injection, schedule: Q01DX001 (ip), vehicle: saline with Tween-80
[5] = endpoint: mean survival time, dose: 200.0 mg/kg/injection, schedule: Q01DX001 (ip), vehicle: saline with Tween-80
[6] = endpoint: mean survival time, dose: 400.0 mg/kg/injection, schedule: Q01DX001 (ip), vehicle: saline with Tween-80
[7] = endpoint: mean survival time, dose: 100.0 mg/kg/injection, schedule: Q04DX003 (ip), vehicle: saline with Tween-80
[8] = endpoint: mean survival time, dose: 200.0 mg/kg/injection, schedule: Q04DX003 (ip), vehicle: saline with Tween-80
[9] = endpoint: mean survival time, dose: 400.0 mg/kg/injection, schedule: Q04DX003 (ip), vehicle: saline with Tween-80
[10] = endpoint: mean survival time, dose: 400.0 mg/kg/injection, schedule: Q01DX009 (ip), vehicle: saline with Tween-80

Measured: T/C

CCOC(=O)c1c(Cl)nc2ccccc2c1Cl
inactive: [1] 105 % of control | [2] 105 % of control | [3] 94 % of control

Nc1ncnc2nc(SCc3cccc([N+](=O)[O-])c3)[nH]c12
inactive: [4] 96 % of control | [5] 90 % of control | [6] 90 % of control

Cc1cn(C2CC(O)C(CO)O2)c(=O)nc1N1CCSCC1 (stereo not drawn)
inactive: endpoint: median survival time, dose: 12.5 mg/kg/injection, schedule: Q01DX005 (ip), vehicle: distilled water + Tween-80 101 % of control | endpoint: median survival time, dose: 25.0 mg/kg/injection, schedule: Q01DX005 (ip), vehicle: distilled water + Tween-80 103 % of control | endpoint: median survival time, dose: 50.0 mg/kg/injection, schedule: Q01DX005 (ip), vehicle: distilled water + Tween-80 102 % of control | endpoint: median survival time, dose: 100.0 mg/kg/injection, schedule: Q01DX005 (ip), vehicle: distilled water + Tween-80 101 % of control | endpoint: median survival time, dose: 200.0 mg/kg/injection, schedule: Q01DX005 (ip), vehicle: distilled water + Tween-80 102 % of control

CC(C)c1cc(O)ccc1N(C)C (tested in a mixture with another compound)
inactive: endpoint: mean survival time, dose: 32.0 micrograms/kg/injection, schedule: Q04DX003 (ip), vehicle: saline 102 % of control | endpoint: mean survival time, dose: 63.0 micrograms/kg/injection, schedule: Q01DX001 (ip), vehicle: saline 98 % of control | endpoint: mean survival time, dose: 63.0 micrograms/kg/injection, schedule: Q04DX003 (ip), vehicle: saline 101 % of control | endpoint: mean survival time, dose: 125.0 micrograms/kg/injection, schedule: Q01DX001 (ip), vehicle: saline 98 % of control | endpoint: mean survival time, dose: 125.0 micrograms/kg/injection, schedule: Q04DX003 (ip), vehicle: saline 90 % of control

CCCC(=O)Nc1ncnc2c1ncn2C1OC2COP(=O)(O)OC2C1OC(=O)CCC (stereo not drawn)
inactive: endpoint: mean survival time, dose: 12.5 mg/kg/injection, schedule: Q01DX009 (ip), vehicle: saline 109 % of control | endpoint: mean survival time, dose: 12.5 mg/kg/injection, schedule: Q01DX009 (ip), vehicle: suspension in saline 98 % of control | endpoint: mean survival time, dose: 25.0 mg/kg/injection, schedule: Q01DX009 (ip), vehicle: saline 97 % of control | endpoint: mean survival time, dose: 25.0 mg/kg/injection, schedule: Q01DX009 (ip), vehicle: suspension in saline 100 % of control | endpoint: mean survival time, dose: 50.0 mg/kg/injection, schedule: Q01DX009 (ip), vehicle: saline 98 % of control | endpoint: mean survival time, dose: 50.0 mg/kg/injection, schedule: Q01DX009 (ip), vehicle: suspension in saline 100 % of control | endpoint: mean survival time, dose: 100.0 mg/kg/injection, schedule: Q01DX009 (ip), vehicle: saline 101 % of control | endpoint: mean survival time, dose: 100.0 mg/kg/injection, schedule: Q01DX009 (ip), vehicle: suspension in saline 105 % of control | endpoint: mean survival time, dose: 200.0 mg/kg/injection, schedule: Q01DX009 (ip), vehicle: saline 98 % of control | endpoint: mean survival time, dose: 200.0 mg/kg/injection, schedule: Q01DX009 (ip), vehicle: suspension in saline 94 % of control | endpoint: mean survival time, dose: 400.0 mg/kg/injection, schedule: Q01DX009 (ip), vehicle: saline 103 % of control | endpoint: mean survival time, dose: 400.0 mg/kg/injection, schedule: Q01DX009 (ip), vehicle: suspension in saline 115 % of control

COc1ccc2c(c1)CCCC2=O
inactive: [2] 102 % of control | [7] 90 % of control | [3] 94 % of control | [8] 93 % of control | [9] 98 % of control

CCOc1cc(/C=N/NC(=O)C(O)c2ccccc2)ccc1O (stereo not drawn)
inactive: [2] 95 % of control | [3] 103 % of control | [10] 101 % of control

CC(=O)OCC(=O)C1CCC2C3CCC4CC(OC(C)=O)CCC4(C)C3CCC12C (stereo not drawn)
inactive: [4] 91 % of control | [5] 91 % of control | [6] 105 % of control

COc1cccc2c1C(=O)c1c(O)c3c(c(O)c1C2=O)C[C@@](O)(/C(C)=N/NC(=O)c1ccc(-c2ccccc2)cc1)C[C@@H]3OC1CC(N)C(O)C(C)O1 (stereo partly drawn)
inactive: endpoint: mean survival time, dose: 0.06 mg/kg/injection, schedule: Q01DX009 (ip), vehicle: water 104 % of control | endpoint: mean survival time, dose: 0.13 mg/kg/injection, schedule: Q01DX009 (ip), vehicle: water 103 % of control | endpoint: mean survival time, dose: 0.25 mg/kg/injection, schedule: Q01DX009 (ip), vehicle: water 114 % of control | endpoint: mean survival time, dose: 0.5 mg/kg/injection, schedule: Q01DX009 (ip), vehicle: water 117 % of control | endpoint: mean survival time, dose: 1.0 mg/kg/injection, schedule: Q01DX009 (ip), vehicle: water 115 % of control | endpoint: mean survival time, dose: 2.0 mg/kg/injection, schedule: Q01DX009 (ip), vehicle: water 122 % of control | endpoint: mean survival time, dose: 4.0 mg/kg/injection, schedule: Q01DX009 (ip), vehicle: water 111 % of control | endpoint: mean survival time, dose: 8.0 mg/kg/injection, schedule: Q01DX009 (ip), vehicle: water 117 % of control | endpoint: mean survival time, dose: 16.0 mg/kg/injection, schedule: Q01DX009 (ip), vehicle: water 88 % of control

COc1cc(/C=N\O)nc(-c2ccccn2)c1
inactive: endpoint: mean survival time, dose: 100.0 mg/kg/injection, schedule: Q01DX001 (ip), vehicle: saline 107 % of control | endpoint: mean survival time, dose: 200.0 mg/kg/injection, schedule: Q01DX001 (ip), vehicle: saline 98 % of control | endpoint: mean survival time, dose: 400.0 mg/kg/injection, schedule: Q01DX001 (ip), vehicle: saline 97 % of control

C[C@@H]1C[C@H]2CC[C@H](O2)[C@H](C)C(=O)O[C@@H](C)C[C@@H]2CC[C@@H](O2)[C@@H](C)C(=O)O[C@H](C)C[C@H]2CC[C@H](O2)[C@H](C)C(=O)O[C@@H](C)C[C@@H]2CC[C@@H](O2)[C@@H](C)C(=O)O1
inactive: endpoint: mean survival time, dose: 8.0 mg/kg/injection, schedule: Q01DX008 (iv), vehicle: saline 98 % of control | endpoint: mean survival time, dose: 16.0 mg/kg/injection, schedule: Q01DX008 (iv), vehicle: saline 98 % of control | endpoint: mean survival time, dose: 32.0 mg/kg/injection, schedule: Q01DX008 (iv), vehicle: saline 95 % of control

[Cl][Sn]([c]1ccccc1)([c]1ccccc1)[c]1ccccc1
inactive: endpoint: mean survival time, dose: 2.5 mg/kg/injection, schedule: Q04DX003 (ip), vehicle: saline 91 % of control | endpoint: mean survival time, dose: 5.0 mg/kg/injection, schedule: Q04DX003 (ip), vehicle: saline 100 % of control | endpoint: mean survival time, dose: 10.0 mg/kg/injection, schedule: Q04DX003 (ip), vehicle: saline with Tween-80 97 % of control | endpoint: mean survival time, dose: 10.0 mg/kg/injection, schedule: Q04DX003 (ip), vehicle: saline 96 % of control

Cc1ccc2c(c1)n([O-])c1cc(Cl)ccc1[n+]2=O
inactive: endpoint: median survival time, dose: 12.5 mg/kg/injection, schedule: Q01DX009 (ip), vehicle: saline with Tween-80 101 % of control and 111 % of control | endpoint: median survival time, dose: 25.0 mg/kg/injection, schedule: Q01DX009 (ip), vehicle: saline with Tween-80 120 % of control | endpoint: median survival time, dose: 30.0 mg/kg/injection, schedule: Q01DX009 (ip), vehicle: saline with Tween-80 108 % of control | endpoint: median survival time, dose: 50.0 mg/kg/injection, schedule: Q01DX009 (ip), vehicle: saline with Tween-80 114 % of control and 112 % of control | endpoint: median survival time, dose: 60.0 mg/kg/injection, schedule: Q01DX009 (ip), vehicle: saline with Tween-80 117 % of control | endpoint: median survival time, dose: 100.0 mg/kg/injection, schedule: Q01DX009 (ip), vehicle: saline with Tween-80 114 % of control and 122 % of control | endpoint: median survival time, dose: 167.0 mg/kg/injection, schedule: Q01DX009 (ip), vehicle: saline with Tween-80 123 % of control | endpoint: median survival time, dose: 200.0 mg/kg/injection, schedule: Q01DX009 (ip), vehicle: saline with Tween-80 124 % of control and 97 % of control | endpoint: median survival time, dose: 278.0 mg/kg/injection, schedule: Q01DX009 (ip), vehicle: saline with Tween-80 121 % of control

CC(C)COC(=O)CN(CC(=O)OCC(C)C)c1ccccc1
inactive: [2] 96 % of control | [7] 110 % of control | [3] 98 % of control | [8] 97 % of control | [10] 103 % of control | [9] 97 % of control

CCCC(O)CNCc1ccc2c3c(cccc13)CC2 (stereo not drawn)
inactive: endpoint: mean survival time, dose: 25.0 mg/kg/injection, schedule: Q01DX001 (ip), vehicle: Klucel (hydroxypropylcellulose) (HPC) 93 % of control | endpoint: mean survival time, dose: 50.0 mg/kg/injection, schedule: Q01DX001 (ip), vehicle: Klucel (hydroxypropylcellulose) (HPC) 101 % of control

CCOC/C=C\C1=CCCCC1
inactive: [1] 97 % of control | [2] 114 % of control | [3] 105 % of control

From PubChem BioAssay AID256 (DTP/NCI, 2004)
